Results taken from US8722849B2, “Polypeptides” (Novo Nordisk A/S, priority 2011, dated 2014).
Starred links: 1 amine or outer side, 2 acyl side, 3 side chain; linkers in the order of their positions; H or OH if unused. Positions of bridges follow the written chain, without caps; N, C: chain ends. Residues, ends and D or L forms follow the SMILES beside them. *: point of attachment. C20 diacid = O=C(O)CCCCCCCCCCCCCCCCCCC(=O)*; C18 diacid = O=C(O)CCCCCCCCCCCCCCCCC(=O)*; γGlu = O=C(O)[C@H](CCC(=O)[*:2])N[*:1]

Assays:
food intake = assay: Assay (I) efficacy testing on appetite (food intake), ad libitum fed rat model; assay type: in vivo, Sprague Dawley (SD) rats; conditions: 3 nmol/kg
How it was run: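 Food consumption was logged per animal every hour up to 7 h and again at 24 h (occasionally 48 h) after a single 0.01–3 mg/kg dose, given sc, po or ip at dark-phase onset. Ad libitum fed SD rats, 200–250 g, kept on inverted light/dark cycle; vehicle group included, outliers removed by Grubbs test.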

[1] = biological target: T1, human amylin receptor (amylin 3(a) receptor: human calcitonin receptor + RAMP-3) (Homo sapiens, UniProt O60896+P30988); assay: Assay (II)a functional CRE-luciferase assay, human amylin receptor; assay type: cell-based; conditions: Table 2; BHK amylin 3(a)-receptor/CRE-luc cells
T1 construct: expressed in transfected cells; host or cells: BHK570
T1 sequence (P30988 25-474): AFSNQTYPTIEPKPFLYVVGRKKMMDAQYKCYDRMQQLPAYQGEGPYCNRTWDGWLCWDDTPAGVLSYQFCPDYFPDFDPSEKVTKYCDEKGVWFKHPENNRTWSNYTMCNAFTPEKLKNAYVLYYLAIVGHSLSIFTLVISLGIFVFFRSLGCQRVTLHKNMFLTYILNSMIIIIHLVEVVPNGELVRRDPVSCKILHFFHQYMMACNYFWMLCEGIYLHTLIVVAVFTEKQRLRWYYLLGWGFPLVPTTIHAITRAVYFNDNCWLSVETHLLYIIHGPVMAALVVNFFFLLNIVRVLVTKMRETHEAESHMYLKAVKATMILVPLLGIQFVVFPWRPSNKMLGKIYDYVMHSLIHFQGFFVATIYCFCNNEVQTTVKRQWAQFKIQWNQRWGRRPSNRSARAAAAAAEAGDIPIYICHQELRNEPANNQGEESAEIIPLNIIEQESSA
T1 sequence (O60896 24-148 partner): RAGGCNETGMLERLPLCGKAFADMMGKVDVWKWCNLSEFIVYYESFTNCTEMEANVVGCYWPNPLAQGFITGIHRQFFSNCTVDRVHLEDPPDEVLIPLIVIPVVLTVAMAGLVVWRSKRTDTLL

Compound	Food intake reduction 0-24 h 3 nmol/kg (%) (food intake)	Food intake reduction 24-48 h 3 nmol/kg (%) (food intake)	EC50 [1]
CC[C@H](C)[C@H](NC(=O)[C@@H]1CCCN1C(=O)CNC(=O)[C@H](Cc1ccccc1)NC(=O)[C@H](CC(N)=O)NC(=O)[C@H](CC(N)=O)NC(=O)[C@H](CO)NC(=O)[C@H](CO)NC(=O)[C@H](Cc1c[nH]cn1)NC(=O)[C@H](Cc1c[nH]cn1)NC(=O)[C@H](CC(C)C)NC(=O)[C@H](Cc1ccccc1)NC(=O)[C@H](CCC(=O)O)NC(=O)[C@H](C)NC(=O)[C@H](CC(C)C)NC(=O)[C@H](CCCNC(=N)N)NC(=O)[C@H](CCC(N)=O)NC(=O)[C@@H](NC(=O)[C@H](C)NC(=O)[C@@H]1CSSC[C@H](NC(=O)[C@H](Cc2c[nH]cn2)NC(=O)[C@H](Cc2c[nH]cn2)NC(=O)[C@H](Cc2c[nH]cn2)NC(=O)CC[C@H](NC(=O)CCCCCCCCCCCCCCCCCCC(=O)O)C(=O)O)C(=O)N[C@@H](CCCNC(=N)N)C(=O)N[C@@H]([C@@H](C)O)C(=O)N[C@@H](C)C(=O)N[C@@H]([C@@H](C)O)C(=O)N1)[C@@H](C)O)C(=O)N[C@@H](CC(C)C)C(=O)N1CCC[C@H]1C(=O)N1CCC[C@H]1C(=O)N[C@H](C(=O)N[C@@H](CC(N)=O)C(=O)N[C@H](C(=O)NCC(=O)N[C@@H](CO)C(=O)N[C@@H](CC(N)=O)C(=O)N[C@H](C(=O)N[C@@H](Cc1ccc(O)cc1)C(N)=O)[C@@H](C)O)C(C)C)[C@@H](C)O [Example 22, N-alpha-[(S)-4-Carboxy-4-(19-carboxynonadecanoylamino)butyryl]-His-His-[His1,Arg3,Glu14,His17]-pramlintide] ({C20 diacid-γGlu}-HHHCRTATCATQRLAEFLHHSSNNFGPILPPTNVGSNTY-NH2; disulfide 4-9 (inferred))	26%	5%	0.0985 nM
CC[C@H](C)[C@H](NC(=O)[C@@H]1CCCN1C(=O)CNC(=O)[C@H](Cc1ccccc1)NC(=O)[C@H](CC(N)=O)NC(=O)[C@H](CC(N)=O)NC(=O)[C@H](CO)NC(=O)[C@H](CO)NC(=O)[C@H](Cc1c[nH]cn1)NC(=O)[C@H](Cc1c[nH]cn1)NC(=O)[C@H](CC(C)C)NC(=O)[C@H](Cc1ccccc1)NC(=O)[C@H](CCC(=O)O)NC(=O)[C@H](C)NC(=O)[C@H](CC(C)C)NC(=O)[C@H](CCCNC(=N)N)NC(=O)[C@H](CCC(N)=O)NC(=O)[C@@H](NC(=O)[C@H](C)NC(=O)[C@@H]1CSSC[C@H](NC(=O)[C@H](CCCCN)NC(=O)[C@H](CCC(=O)O)NC(=O)CC[C@H](NC(=O)CCCCCCCCCCCCCCCCCCC(=O)O)C(=O)O)C(=O)N[C@@H](CC(N)=O)C(=O)N[C@@H]([C@@H](C)O)C(=O)N[C@@H](C)C(=O)N[C@@H]([C@@H](C)O)C(=O)N1)[C@@H](C)O)C(=O)N[C@@H](CC(C)C)C(=O)N1CCC[C@H]1C(=O)N1CCC[C@H]1C(=O)N[C@H](C(=O)N[C@@H](CC(N)=O)C(=O)N[C@H](C(=O)NCC(=O)N[C@@H](CO)C(=O)N[C@@H](CC(N)=O)C(=O)N[C@H](C(=O)N[C@@H](Cc1ccc(O)cc1)C(N)=O)[C@@H](C)O)C(C)C)[C@@H](C)O [Example 26, N-alpha-[(S)-4-Carboxy-4-(19-carboxynonadecanoylamino)butyryl]-Glu-[Glu14,His17]-pramlintide] ({C20 diacid-γGlu}-EKCNTATCATQRLAEFLHHSSNNFGPILPPTNVGSNTY-NH2; disulfide 3-8 (inferred); C-terminus assumed)	46%	39%	0.13 nM
CC[C@H](C)[C@H](NC(=O)[C@@H]1CCCN1C(=O)CNC(=O)[C@H](Cc1ccccc1)NC(=O)[C@H](CC(N)=O)NC(=O)[C@H](CC(N)=O)NC(=O)[C@H](CO)NC(=O)[C@H](CO)NC(=O)[C@H](Cc1c[nH]cn1)NC(=O)[C@H](Cc1c[nH]cn1)NC(=O)[C@H](CC(C)C)NC(=O)[C@H](Cc1ccccc1)NC(=O)[C@H](CCC(=O)O)NC(=O)[C@H](C)NC(=O)[C@H](CC(C)C)NC(=O)[C@H](CCCNC(=N)N)NC(=O)[C@H](CCC(N)=O)NC(=O)[C@@H](NC(=O)[C@H](C)NC(=O)[C@@H]1CSSC[C@H](NC(=O)[C@H](CCCCN)NC(=O)[C@H](CCC(=O)O)NC(=O)CC[C@H](NC(=O)CCCCCCCCCCCCCCCCC(=O)O)C(=O)O)C(=O)N[C@@H](CC(N)=O)C(=O)N[C@@H]([C@@H](C)O)C(=O)N[C@@H](C)C(=O)N[C@@H]([C@@H](C)O)C(=O)N1)[C@@H](C)O)C(=O)N[C@@H](CC(C)C)C(=O)N1CCC[C@H]1C(=O)N1CCC[C@H]1C(=O)N[C@H](C(=O)N[C@@H](CC(N)=O)C(=O)N[C@H](C(=O)NCC(=O)N[C@@H](CO)C(=O)N[C@@H](CC(N)=O)C(=O)N[C@H](C(=O)N[C@@H](Cc1ccc(O)cc1)C(N)=O)[C@@H](C)O)C(C)C)[C@@H](C)O [Example 42, N-alpha-[(S)-4-Carboxy-4-(17-carboxyheptadecanoylamino)butyryl]-Glu-[Glu14,His17]-pramlintide] ({C18 diacid-γGlu}-EKCNTATCATQRLAEFLHHSSNNFGPILPPTNVGSNTY-NH2; disulfide 3-8 (inferred))	45%	5%	0.0739 nM
CC[C@H](C)[C@H](NC(=O)[C@@H]1CCCN1C(=O)CNC(=O)[C@H](Cc1ccccc1)NC(=O)[C@H](CC(N)=O)NC(=O)[C@H](CC(N)=O)NC(=O)[C@H](CO)NC(=O)[C@H](CO)NC(=O)[C@H](Cc1c[nH]cn1)NC(=O)[C@H](Cc1c[nH]cn1)NC(=O)[C@H](CC(C)C)NC(=O)[C@H](Cc1ccccc1)NC(=O)[C@H](CCC(=O)O)NC(=O)[C@H](C)NC(=O)[C@H](CC(C)C)NC(=O)[C@H](CCCNC(=N)N)NC(=O)[C@H](CCC(N)=O)NC(=O)[C@@H](NC(=O)[C@H](C)NC(=O)[C@@H]1CSSC[C@H](NC(=O)[C@H](CCCCN)NC(=O)CC[C@H](NC(=O)CCCCCCCCCCCCCCCCC(=O)O)C(=O)O)C(=O)N[C@@H](CC(N)=O)C(=O)N[C@@H]([C@@H](C)O)C(=O)N[C@@H](C)C(=O)N[C@@H]([C@@H](C)O)C(=O)N1)[C@@H](C)O)C(=O)N[C@@H](CC(C)C)C(=O)N1CCC[C@H]1C(=O)N1CCC[C@H]1C(=O)N[C@H](C(=O)N[C@@H](CC(N)=O)C(=O)N[C@H](C(=O)NCC(=O)N[C@@H](CO)C(=O)N[C@@H](CC(N)=O)C(=O)N[C@H](C(=O)N[C@@H](Cc1ccc(O)cc1)C(N)=O)[C@@H](C)O)C(C)C)[C@@H](C)O [Example 46, N-alpha-[(S)-4-Carboxy-4-(17-carboxyheptadecanoylamino)butyryl]-[Glu14,His17]-pramlintide] ({C18 diacid-γGlu}-KCNTATCATQRLAEFLHHSSNNFGPILPPTNVGSNTY-NH2; disulfide 2-7 (inferred); C-terminus assumed)	54%	27%	0.0469 nM
CC[C@H](C)[C@H](NC(=O)[C@@H]1CCCN1C(=O)CNC(=O)[C@H](Cc1ccccc1)NC(=O)[C@H](CC(N)=O)NC(=O)[C@H](CC(N)=O)NC(=O)[C@H](CO)NC(=O)[C@H](CO)NC(=O)[C@H](Cc1c[nH]cn1)NC(=O)[C@H](CCCNC(=N)N)NC(=O)[C@H](CC(C)C)NC(=O)[C@H](Cc1ccccc1)NC(=O)[C@H](CCC(=O)O)NC(=O)[C@H](C)NC(=O)[C@H](CC(C)C)NC(=O)[C@H](CCCNC(=N)N)NC(=O)[C@H](CCC(N)=O)NC(=O)[C@@H](NC(=O)[C@H](C)NC(=O)[C@@H]1CSSC[C@H](NC(=O)[C@H](CCCCN)NC(=O)CC[C@H](NC(=O)CCCCCCCCCCCCCCCCCCC(=O)O)C(=O)O)C(=O)N[C@@H](CC(N)=O)C(=O)N[C@@H]([C@@H](C)O)C(=O)N[C@@H](C)C(=O)N[C@@H]([C@@H](C)O)C(=O)N1)[C@@H](C)O)C(=O)N[C@@H](CC(C)C)C(=O)N1CCC[C@H]1C(=O)N1CCC[C@H]1C(=O)N[C@H](C(=O)N[C@@H](CC(N)=O)C(=O)N[C@H](C(=O)NCC(=O)N[C@@H](CO)C(=O)N[C@@H](CC(N)=O)C(=O)N[C@H](C(=O)N[C@@H](Cc1ccc(O)cc1)C(N)=O)[C@@H](C)O)C(C)C)[C@@H](C)O [Example 50, N-alpha-[(S)-4-Carboxy-4-(19-carboxynonadecanoylamino)butyryl]-[Glu14,Arg17]-pramlintide] ({C20 diacid-γGlu}-KCNTATCATQRLAEFLRHSSNNFGPILPPTNVGSNTY-NH2; disulfide 2-7 (inferred))	30%	8%	0.101 nM
